Experimental data: patent US11191773B2, “Methods of treatment for bacterial infections” (President and Fellows of Harvard College, priority 2017, dated 2021)
≈ marks a conversion by molar mass, not a printed value.

Key:
lptB1 = assay: Minimum inhibitory concentration assay; format: cell-based, E. coli
Procedure: (§1) We wondered whether it would be possible to separate novobiocin's ability to suppress the IptFG(ch) defects in vivo from its activity against DNA gyrase, its presumed primary target. […] Minimum inhibitory concentrations were measured after a 15-hr incubation period at 37° C.
(§2) Overnight cultures were prepared by transferring 5 mL of sterile LB Miller media to culture tubes and inoculating with the corresponding organism. The tubes were allowed to shake at 220 rpm, 37° C. overnight. 15 μL of overnight culture was diluted in 15 mL of LB Miller in a Falcon tube and was vortexed to mix. In a 96-well plate, 100 μL of diluted culture was added to each well. To column #1, an additional 100 μL of diluted culture and test compound was added (93.7 μL culture+6.35 μL 10 mg/mL novobiocin) or (94.2 μL culture+5.87 μL 10 mg/mL 1-adamantyl-novobiocin) such that the highest concentration tested was 500 μM. Transferred 100 μL from column #1 into column #2, etc, and mixed each time thoroughly. Repeated serial dilution until column #11. Incubated the plate at 37° C. overnight (˜16 h) and read the turbidity (OD600) using a Spectramax 384 plus plate reader (Molecular Devices).

wild type = assay: Minimum inhibitory concentration assay; format: cell-based, E. coli; settings: Escherichia coli, 15 h, read-out: Minimum inhibitory concentration
Procedure: as §1, §2

ΔtolC = assay: Minimum inhibitory concentration assay; format: cell-based, E. coli
Procedure: as §1, §2

IptFG(ch) mutant = assay: Rescue of growth of coupling helix mutant (plating and disk assays); format: cell-based, E. coli
Procedure: FIG. 8B is a series of pictures of bacterial overnight cultures grown in minimal medium. The cultures were serially diluted ten-fold and spotted onto LB agar plates with and without compounds.
FIG. 15 is a picture of bacterial lawns grown on plates in the presence of disks containing antibiotics. […] Strains were grown overnight in minimal media and then plated on LB plates. Each disk contained 5 μg compound.
The coupling helices in LptFG each contain a strictly-conserved glutamate, and changing both glutamates to alanine (IptFG(ch)) causes a lethal loss of function (FIG. 8B, LB panel). […] Because novobiocin also contacts R91 (FIG. 7C), we speculated that it might rescue growth of IptFG(ch) by masking the charge. […] We conclude that novobiocin suppresses Lpt defects in vivo by interacting with LptB at R91; therefore, novobiocin interacts with LptB in cells in a similar manner to that observed in the crystal structure.
Disk diffusion assays were performed as described in Sherman et al., Proc. Natl. Acad. Sci. USA 2014, 111, 4982-4987. Premade Sensi-Disc (BD-Beckton, Dickinson and Company) were used for bacitracin 10IU, erythromycin 15 μg, novobiocin 30 μg, and rifampin 5 μg.
(§3) Efficiency of plating assays were performed on indicated media using the method described in Butler et al., J. Bacteriol. 2013, 195, 4639-4649.

[1] = target: T1, LptB2LptFG(ch)C complexes (Escherichia coli, UniProt P0A9V1); assay: LPS-release assay, right-side-out vesicles to LptA*; format: biochemical, E. coli; settings: 30° C. (FIG. 9C)
T1 construct: made in house; host or cells: right-side-out membrane vesicles from E. coli BL-21(λDE3) overexpressing the complex
T1 sequence (P0AF98 whole entry E84A): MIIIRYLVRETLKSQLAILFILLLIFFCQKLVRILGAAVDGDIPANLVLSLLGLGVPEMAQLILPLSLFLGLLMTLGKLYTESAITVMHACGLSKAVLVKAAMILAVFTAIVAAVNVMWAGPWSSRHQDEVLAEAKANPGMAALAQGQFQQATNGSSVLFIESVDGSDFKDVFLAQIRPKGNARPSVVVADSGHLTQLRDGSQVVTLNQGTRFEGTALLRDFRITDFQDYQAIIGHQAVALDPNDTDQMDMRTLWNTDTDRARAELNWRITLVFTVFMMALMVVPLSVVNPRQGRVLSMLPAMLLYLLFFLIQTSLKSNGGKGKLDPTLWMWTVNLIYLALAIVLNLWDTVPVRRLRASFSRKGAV
T1 sequence (P0ADC6 whole entry E88A, further chain): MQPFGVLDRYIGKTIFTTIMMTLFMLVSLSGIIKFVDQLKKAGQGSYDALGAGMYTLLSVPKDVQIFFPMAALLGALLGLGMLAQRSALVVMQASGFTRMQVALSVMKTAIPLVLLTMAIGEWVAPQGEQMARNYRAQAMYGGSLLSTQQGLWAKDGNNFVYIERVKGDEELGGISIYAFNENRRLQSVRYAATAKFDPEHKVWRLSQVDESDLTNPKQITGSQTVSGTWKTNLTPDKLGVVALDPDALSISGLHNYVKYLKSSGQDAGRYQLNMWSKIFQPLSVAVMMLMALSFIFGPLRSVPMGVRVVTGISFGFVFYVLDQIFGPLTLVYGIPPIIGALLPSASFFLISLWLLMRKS
T1 sequence (P0A9V1 2-241): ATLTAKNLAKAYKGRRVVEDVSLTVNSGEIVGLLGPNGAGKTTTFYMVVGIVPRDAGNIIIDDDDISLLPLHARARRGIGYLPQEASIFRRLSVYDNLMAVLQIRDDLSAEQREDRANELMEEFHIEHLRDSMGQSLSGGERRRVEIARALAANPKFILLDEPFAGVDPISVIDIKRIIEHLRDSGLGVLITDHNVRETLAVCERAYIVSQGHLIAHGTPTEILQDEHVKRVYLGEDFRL
T1 sequence (P0ADV9 whole entry, further chain): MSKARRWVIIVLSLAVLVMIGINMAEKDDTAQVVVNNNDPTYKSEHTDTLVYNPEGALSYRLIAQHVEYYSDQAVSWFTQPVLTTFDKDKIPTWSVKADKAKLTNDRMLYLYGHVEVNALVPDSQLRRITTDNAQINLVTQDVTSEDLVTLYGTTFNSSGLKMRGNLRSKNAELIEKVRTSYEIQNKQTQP
Procedure: FIG. 9A is a schematic drawing showing the assay to monitor LPS release from right-side-out vesicles to LptA* (LptA(I36pBPA)). Vesicles containing overexpressed wild-type or mutant LptB2FGC complexes were incubated with LptA* and ATP at 30° C. to initiate LPS extraction and transport from the vesicles to LptA*. Samples were taken at different time points and UV-irradiated to crosslink LPS to LptA*, and accumulation of LPS-LptA* adducts was detected using LPS immunoblots.
The assay detects via immunoblot LPS that becomes crosslinked to LptA* in the presence of UV light. […] By comparison, vesicles containing LptB2LptFG(ch)C complexes released less LPS over time (FIG. 9B, lanes 5-8). These experiments provide direct evidence that the amino acid changes in LptFG(ch), which were known to affect complex formation with LptB, impair LPS release. […] These compounds also increase LPS release from vesicles containing wild-type LptB2FGC complexes or LptB(R91 S)2FGC complexes (FIG. 17).
The in vitro LPS-transport experiments in FIGS. 9B, 9C, and 17 were set-up as described in (Okuda et al. Science 2012, 338, 1214-1217) with some modifications. […]
Immunoblotting was used to assess LptA*-LPS levels in each sample. […] LptA levels were assessed similarly, using rabbit anti-LptA antiserum followed by donkey anti-rabbit horseradish peroxidase conjugate (GE Amersham). […]

wild type and IptB1 = assay: Plating assay (FIG. 14); format: cell-based, E. coli
Procedure: as §3

[2] = Escherichia coli, 15 h, read-out: Minimum inhibitory concentration

COC1C(OC(N)=O)C(O)[C@H](Oc2ccc3c(O)c(NC(=O)C45CC6CC(CC(C6)C4)C5)c(=O)oc3c2C)OC1(C)C (stereo partly drawn) [Novobiocin-adamantyl, (3R,4S,5R,6R)-6-((3-((3R,5S)-adamantane-1-carboxamido)-4-hydroxy-8-methyl-2-oxo-2H-chromen-7-yl)oxy)-5-hydroxy-3-methoxy-2,2-dimethyltetrahydro-2H-pyran-4-yl carbamate]
MIC (lptB1; [2]): 125 µM (≈ 73.3 µg/mL)
less potent in vivo compared to novobiocin (lptB1; leaky IptB1 strain): ~100 ×
MIC (wild type): > 500 µM
MIC (ΔtolC; [2]): 125 to 250 µM (≈ 73.3 to 147 µg/mL)
less potent in vivo compared to novobiocin (ΔtolC; efflux pump-deficient ΔtoIC strain): ~100 ×
suppression of lethality of IptFG(ch) (IptFG(ch) mutant; disks on LB plates, each disk 5 μg compound (FIG. 15)): suppressed the lethality of IptFG(ch)
rescue of growth of IptFG(ch) (IptFG(ch) mutant; serial dilutions spotted onto LB agar plates with compound (FIG. 8B)): completely suppressed the lethality of IptFG(ch)
LPS release from vesicles to LptA* [1]: stimulate LPS release from the LptB2LptFG(ch)C vesicles in a concentration dependent manner
potency compared to novobiocin (wild type and IptB1): less potent than novobiocin
